Experimental data: patent US20260138981A1, “DIHYDROFOLATE REDUCTASE INHIBITORS FOR ANTI-BIOTIC RESISTANT INFECTIONS” (THE TRUSTEES OF PRINCETON UNIVERSITY, priority 2022, published 2026)
Values after ≈ are worked out from the molar mass of the structure shown.

Tests used:
PBMC = format: cell-based; conditions: 72 h
Description: FIG. 5D provides IC50 of fluorofolin against in vitro mammalian cell lines relative to the IC50 of IRS-16. HLF: human lung fibroblast, HK-2: human kidney epithelial, PBMC: peripheral blood mononuclear cell, WI-38: Embryonic lung tissue.
After 24 hours, DMSO or compounds were added in 3-fold dilutions and incubated for 72 hours. For PBMC, CellTiter-Glo Reagent was added in equal volume and incubated for 30 min after which luminescence was read. For other cell types, CyQUANT Detection Reagent was added in equal volume and incubated for 1 hour after which fluorescence was read with standard green filter set (508/527 nm ex). Cell toxicity was evaluated by Pharmaron, Inc. (Beijing, […]).

[1] = system: S. epidermidis, E. cloacae, E. faecalis, K. pneumoniae, and S. aureus; test: Growth of other species with TMI supplementation; format: cell-based; conditions: fluorofolin 2×MIC, 0.3 mM TMI
Description: Where listed, growth media were prepared according manufacturer recommendations: LB Broth and LB Broth supplemented with 0.3 mM thymine (BD Biosciences 244610, Alfa Aesar A15879), 0.3 mM methionine (Sigma-Aldrich M9625), 0.3 mM inosine (EMD Millipore 4060), Mueller Hinton II Broth (Cation-Adjusted)/(CAMHB) (BD 212322) or 0.3 mM thymidine (Sigma-Aldrich T1895), Gutnick Minimal Media (1.0 g/L K2SO4, 13.5 g/L K2HPO4, 4.7 g/L KH2PO4, 0.1 g/L of MgSO4-7H2O, 10 mM NH4Cl as a nitrogen source, and 0.4% w/v glucose as a carbon source)^62.

[2] = Serum binding (plasma protein binding, dialysis); format: in vitro ADME; conditions: mouse plasma
Description: An initial t=0 sample was collected. fluorofolin was incubated with plasma for 6 hours after which dialysis was performed. After dialysis, supernatant was collected, and the amount of fluorofolin was determined by LC-MS/MS to determine the % Unbound of fluorofolin. Serum binding parameters were determined as follows: • 1. % Bound=100%−% Unbound • 2. Log K=Log (% Bound/100−% Bound) • 3. % Remaining=Area-ratio6hr/Area-ratio0hr×100% • 4. % Recovery was determined as (Area-ratiobuffer-chamber+Area-ratioplasma-chamber)/(Area-ratioTotal sample)×100 Serum binding analysis was performed by Pharmaron, Inc. (Beijing, ROC). C. elegans Maintenance and Toxicity Assay

[3] = system: PA14 mutants with disruptions in mexA, mexB and oprM; test: MIC against MexAB-OprM transposon mutants; format: cell-based, P. aeruginosa; conditions: oprM transposon mutants vs wildtype PA14
Description: FIG. 1I is the minimum inhibitory concentration of fluorofolin or trimethoprim against transposon mutants for each component of the MexAB-OprM efflux pump. MIC against wildtype PA14 was calculated to control for each drug stock. MIC values are representative of two independent replicates.
P. aeruginosa PA14 transposon mutants were generated by the Ausubel Lab (http://ausubellab.mgh.harvard.edu/cgi-bin/pa14/home.cgi). The MICs of fluorofolin and TMP against strains with disrupted MexA, MexB, and OprM were determined as above and compared to the parental strain. As transposon mutants in MexB were represented twice in this collection, the MIC was confirmed across both mutant strains.

E. coli ATCC BAA-198 = test: MIC, WuXi, Mueller-Hinton Broth; format: cell-based; conditions: Escherichia coli, ATCCBAA198, performed by WuXi in Mueller-Hinton Broth
Description: (§1) For MICs calculations performed by WuXi (Shanghai, China), MIC was calculated as the lowest concentration that inhibits visible growth after 18 hours. 4-8 bacterial colonies of strains of interest were vortexed in saline and adjusted to an OD600 of 0.2. Strains were diluted 1:200 into CAMHB media into 96-well plates. Antibiotics were serially diluted 1:3 in DMSO, and 1 μL of each dilution was added to bacteria. The plates were incubated for 18-20 hours at 37° C. before observation.

S. aureus NRS384 = test: MIC, WuXi, Mueller-Hinton Broth; format: cell-based; conditions: Staphylococcus aureus, performed by WuXi in Mueller-Hinton Broth
Description: as §1

E. faecalis ATCC 51575 = test: MIC, WuXi, Mueller-Hinton Broth; format: cell-based; conditions: Enterococcus faecalis, ATCC51575, performed by WuXi in Mueller-Hinton Broth
Description: as §1

[4] = system: S. typhimurium CMCC 50115; test: MIC, WuXi, Mueller-Hinton Broth; format: cell-based; conditions: Salmonella enterica, performed by WuXi in Mueller-Hinton Broth
Description: as §1

A. baumannii ATCC 17978 = test: MIC, WuXi, Mueller-Hinton Broth; format: cell-based; conditions: Acinetobacter baumannii, ATCC17978, performed by WuXi in Mueller-Hinton Broth
Description: as §1

[5] = biological target: T1, purified E. coli DHFR (FolA) (Escherichia coli, UniProt P0ABQ4); test: In vitro DHFR (FolA) activity, NADPH consumption at 340 nm; format: biochemical; conditions: Hill equation fit
T1 construct: purchased Genscript (Piscataway, NJ)

P. aeruginosa PA14 = test: Checkerboard assay of fluorofolin and sulfamethoxazole; format: cell-based
Description: FIG. 2B is a Checkerboard assay of fluorofolin and sulfamethoxazole. Z-values represent fractional inhibitory concentrations (FICs). FICs were determined by dividing the MIC of each drug when used in combination by the MIC when used alone. FIC of less than or equal to 0.5 is considered a synergistic effect.
Cells were seeded in a similar manner as described above for MIC calculations. Sulfamethoxazole (Chem-Impex 00821) was diluted 1:2 down the rows of the plate, while fluorofolin was diluted 1:2 down the column of the plate. Fractional inhibitory concentrations (FICs) were calculated as [fluorofolin]/MICFluorofolin+[SMX]/MICSMX where [fluorofolin] and [SMX] are the concentrations of compounds in given well, which are dividing by the concentration of drug at the MIC for each compound. FIC values less than or equal to 0.5 are considered synergistic.

SMILES: Nc1nc(N)c2c(ccc3c2ccn3Cc2ccnc(F)c2)n1 [fluorofolin]
- increase in IC50 compared to IRS-16 (PBMC): 9.6 fold
- rescue of growth inhibition by TMI supplementation [1]: could also be rescued from fluorofolin growth inhibition
- recovery at 6 h, 1 μM [2]: 91.9%
- change of MIC in efflux pump mutants [3]: did not decrease their MIC against fluorofolin to the same extent
- MIC (E. coli ATCC BAA-198): 7.11 µg/mL (≈ 23.1 µM)
- MIC (S. aureus NRS384): 0.03 µg/mL (≈ 0.0973 µM)
- MIC (E. faecalis ATCC 51575): 0.01 µg/mL (≈ 0.0324 µM)
- MIC [4]: 0.03 µg/mL (≈ 0.0973 µM)
- MIC (A. baumannii ATCC 17978): 0.8 µg/mL (≈ 2.59 µM)
- IC50 [5]: 2.5 ± 1.1 nM
- MIC (P. aeruginosa PA14; Pseudomonas aeruginosa, PA14, SMX 156 μg/mL, read-out: MIC of fluorofolin in the presence of SMX): 0.4 µg/mL
- synergy (FIC, checkerboard) (P. aeruginosa PA14; combination of fluorofolin and sulfamethoxazole (SMX), PA14): significant synergy
